Test results reported in US10792324B2, “Compositions and methods for the treatment of orthopedic ailments” (K.L.R.M., LLC, priority 2016, dated 2020).

Tests used:
femur fracture [1] = experiment: Biomechanical evaluation (torsion to failure) of healing femur fracture; assay type: in vivo, rat
Method: As briefly mentioned above, efficacy of the present nutraceutical composition was tested. Fifty-eight male Sprague-Dawley rats (10 weeks old, body weight (BW): 344±11 g) were used for this study, which was approved by the Institutional Animal Care and Use Committee of the Charles R. Drew University of Medicine and Science. The rats were housed for one week prior to experimental procedures to permit acclimatization and then randomly assigned to three groups. The control group (n=19 rats) received 0.2 ml of vehicle composed of 10% dimethyl sulfoxide (DMSO), peanut butter and water by retro-lingual administration. The tadalafil group (n=20 rats) was given a daily oral dose of 2.0 mg/kg body weight (BW) of the PDE5 inhibitor, tadalafil (Eli Lilly, Indianapolis, Ind.), mixed with vehicle. […] The COMB-4 group (Naturex, […]=19 rats), that is, the group receiving the nutraceutical composition in accordance with the present invention, received a combination of Muira puama (45 mg/kg body weight BW), Paullinia cupana (45 mg/kg BW), ginger (45 mg/kg BW) and L-citrulline (133 mg/kg BW) dissolved in vehicle. The appropriate rat dose of each of the four components of COMB-4 was calculated based on the equivalent recommended human daily dose as previously reported. See International Patent Publication Number WO 2012/067745 A 1 for more details on the ingredients in COMB-4, ranges of ingredients, and the beneficial effects thereof in treating Erectile Dysfunction and cardiovascular disease. All animals received the vehicle only for the three days prior to surgery to get the animals adapted to the taste, and began receiving either their respectively assigned control or experimental daily dose of tadalafil or COMB-4 on the same day right after the fracture (day 0). All surgeries were performed by one orthopedic surgeon who was blinded to the rats' experimental assignment. Anesthesia was induced with 3% isoflurane and maintained with 2.5% isoflurane throughout the surgery. All rats received subcutaneous injections of buprenorphine 0.05 mg/kg body weight for pre- and post-operative pain control. Each rat then underwent a unilateral femur fracture with internal fixation. […] The underlying fascia was incised at the medial patellar tendon border and the patella was dislocated laterally. The trochlea was opened with a 1.0 mm drill bit and the intramedullary canal and greater trochanter were […] 21-3 gauge hypodermic needle. The intramedullary canal was sequentially […] 18-gauge needle, and the epicondyle was further opened with a 16-gauge needle. The femoral shaft was accessed by sweeping the vastus medialis laterally. A cat claw scissors (Petco, San Diego, Calif.) placed at the junction of the middle and distal one-third of the femoral shaft was used to make a transverse fracture. A randomizer table was used to determine laterality of the osteotomy. While maintaining control of both fracture fragments, a titanium compression intramedullary screw ([…], Davos, Switzerland) was applied in a retrograde manner while directly visualizing the fracture reduction. […] The fascia and skin were closed in two layers utilizing 4-0 Vicryl (Ethicon Inc., Somerville, N.J.) and VetBond skin glue (3M, St. Paul, Minn.). […] Unprotected weight bearing was permitted immediately postoperatively, and on day 14, 5 rats from each group were euthanized using inhalational CO2 and femora were harvested for qCT (quantitative computerized tomography) and histological evaluation. […]

femur fracture [2] = experiment: Callus development analysis via qCT after femur fracture; assay type: in vivo, rat; conditions: osteotomy site
Method: As briefly mentioned above, efficacy of the present nutraceutical composition was tested. Fifty-eight male Sprague-Dawley rats (10 weeks old, body weight (BW): 344±11 g) were used for this study, which was approved by the Institutional Animal Care and Use Committee of the Charles R. Drew University of Medicine and Science. The rats were housed for one week prior to experimental procedures to permit acclimatization and then randomly assigned to three groups. The control group (n=19 rats) received 0.2 ml of vehicle composed of 10% dimethyl sulfoxide (DMSO), peanut butter and water by retro-lingual administration. The tadalafil group (n=20 rats) was given a daily oral dose of 2.0 mg/kg body weight (BW) of the PDE5 inhibitor, tadalafil (Eli Lilly, Indianapolis, Ind.), mixed with vehicle. […] The COMB-4 group (Naturex, […]=19 rats), that is, the group receiving the nutraceutical composition in accordance with the present invention, received a combination of Muira puama (45 mg/kg body weight BW), Paullinia cupana (45 mg/kg BW), ginger (45 mg/kg BW) and L-citrulline (133 mg/kg BW) dissolved in vehicle. The appropriate rat dose of each of the four components of COMB-4 was calculated based on the equivalent recommended human daily dose as previously reported. See International Patent Publication Number WO 2012/067745 A 1 for more details on the ingredients in COMB-4, ranges of ingredients, and the beneficial effects thereof in treating Erectile Dysfunction and cardiovascular disease. All animals received the vehicle only for the three days prior to surgery to get the animals adapted to the taste, and began receiving either their respectively assigned control or experimental daily dose of tadalafil or COMB-4 on the same day right after the fracture (day 0). All surgeries were performed by one orthopedic surgeon who was blinded to the rats' experimental assignment. Anesthesia was induced with 3% isoflurane and maintained with 2.5% isoflurane throughout the surgery. All rats received subcutaneous injections of buprenorphine 0.05 mg/kg body weight for pre- and post-operative pain control. Each rat then underwent a unilateral femur fracture with internal fixation. […] The underlying fascia was incised at the medial patellar tendon border and the patella was dislocated laterally. The trochlea was opened with a 1.0 mm drill bit and the intramedullary canal and greater trochanter were […] 21-3 gauge hypodermic needle. The intramedullary canal was sequentially […] 18-gauge needle, and the epicondyle was further opened with a 16-gauge needle. The femoral shaft was accessed by sweeping the vastus medialis laterally. A cat claw scissors (Petco, San Diego, Calif.) placed at the junction of the middle and distal one-third of the femoral shaft was used to make a transverse fracture. A randomizer table was used to determine laterality of the osteotomy. While maintaining control of both fracture fragments, a titanium compression intramedullary screw ([…], Davos, Switzerland) was applied in a retrograde manner while directly visualizing the fracture reduction. […] The fascia and skin were closed in two layers utilizing 4-0 Vicryl (Ethicon Inc., Somerville, N.J.) and VetBond skin glue (3M, St. Paul, Minn.). A small amount of triple antibiotic ointment ([…].) was applied to the skin. Range of motion at the hip and knee was performed to ensure there was no penetration of the screw proximally and that the patella was adequately tracking. Unprotected weight bearing was permitted immediately postoperatively, and on day 14, 5 rats from each group were euthanized using inhalational CO2 and femora were harvested for qCT (quantitative computerized tomography) and histological evaluation. On day 42, fifteen (15) rats from each group were euthanized for qCT and histological evaluation. The remaining rats were euthanized for biomechanical testing. Mineral Content and Callus Volume. […]

[3] = day 42, relative to control group
[4] = day 42, torsion test, mean ± S.D.
[5] = Newly formed Total Callus (>299 mg/cm^3), Day 14, mean ± S.D.
[6] = Newly formed Total Callus (>299 mg/cm^3), Day 42, mean ± S.D.
[7] = Newly formed Total Callus (>500 mg/cm^3), Day 14, mean ± S.D.
[8] = Newly formed Total Callus (>500 mg/cm^3), Day 42, mean ± S.D.

CN1CC(=O)N2[C@H](c3ccc4c(c3)OCO4)c3[nH]c4ccccc4c3C[C@@H]2C1=O [Tadalafil, tadalafil]
higher maximum strength (maximum torque) than control group (femur fracture [1]; [3]): 15% | higher stiffness than control group (femur fracture [1]; [3]): 28% | Maximum Torque (femur fracture [1]; [4]): 326.8 ± 138.0 Nmm | Torsional Stiffness (femur fracture [1]; [4]): 59.9 ± 31.1 Nmm/Deg. | Fracture Repair Stage (I, II, III or IV) (femur fracture [1]; day 42, torsion test, mean ± S.D., I = 1, II = 2, III = 3, IV = 4): 2.4 ± 0.5 | Bone Density (femur fracture [2]; [5]): 458.4 ± 29.2 mg/mL | Callus Volume (femur fracture [2]; [5]): 44.9 ± 11.7 mm^3 | Mineral Content (femur fracture [2]; [5]): 20.8 ± 6.3 mg | Bone Density (femur fracture [2]; [6]): 510.0 ± 18.9 mg/mL | Callus Volume (femur fracture [2]; [6]): 66.3 ± 22.3 mm^3 | Mineral Content (femur fracture [2]; [6]): 34.1 ± 12.7 mg | Callus Volume (femur fracture [2]; [7]): 16.4 ± 4.7 mm^3 | Mineral Content (femur fracture [2]; [7]): 11.0 ± 3.8 mg | Callus Volume (femur fracture [2]; [8]): 35.6 ± 12.6 mm^3 | Mineral Content (femur fracture [2]; [8]): 24.1 ± 8.3 mg | Bone Density (femur fracture [2]; Newly formed Total Callus, Day 14, mean ± S.D.): 665.0 ± 2.0 mg/mL | Bone Density (femur fracture [2]; Newly formed Total Callus, Day 42, mean ± S.D.): 697.2 ± 12.4 mg/mL
